What was measured:
Pneumocystis = settings: mice; Bartlett et al. 1991; cited from earlier work
Babesia = settings: mice; single doses for tafenoquine; cited from earlier work
[1] = doses of up to 1200 mg over three days; Green et al 2014; cited from earlier work
[2] = tested on: Monocyte chemotactic protein 1 (MCP-1); type: in vivo, human
[3] = in vivo; cited from earlier work
COVID-19 disease [4] = experiment: Phase II clinical trial, time to clinical recovery in mild-moderate COVID-19; type: in vivo, human
From the text: Laboratory endpoint and patient-level individual symptom data were collected in that study, have not been reported elsewhere, and form the basis for surprising findings about the therapeutic and mechanistic effects of tafenoquine described herein.
Longitudinal aggregate symptom data for individual patients from Dow and Smith (2022) were examined to determine the number of days required before each patients reported an aggregate symptom score of 2 for four days of more for the first time. This endpoint was not included as a pre-specified analysis in the original study design, and was only recently confirmed to be an endpoint of interest to regulars in mild-moderate COVID-19 disease in standard risk patients. […] A survival curve was generated, and data were analyzed using Graphpad Prism. […] At Day 28, which was the last day of the study, the proportion of patients with persistent COVID-19 symptoms was lower in the tafenoquine arm.

[5] = tested on: total anti SARS-CoV-2 spike protein antibody; type: in vivo, human
SARS-CoV-2 [6] = type: cell-based; settings: calculated relative to the CC50 for the 4-day test
COVID-19 disease [7] = settings: mild-moderate COVID-19; exploratory analyses; P<0.02; Dow and Smith 2022; cited from earlier work
[8] = tested on: blood stages of P. falciparum; settings: Baird et al. 2002; McCarthy et al. 2019; cited from earlier work
SARS-CoV-2 [9] = experiment: Nasopharyngeal viral load change from baseline, regression analysis; type: in vivo, human; settings: Log10 viral copy number/ml; baseline through Day 5; P 0.8650
Description: NP swabs were collected at Baseline and Day 5 and Log10 viral copy number/ml was determined utilizing the standard commercially available assay from Eurofins. Only samples from patients where valid baseline and Day 5 results were obtained were analyzed. Samples with values below the dynamic range of the assay were assigned a value equivalent to the detection limit. Samples with […] were assigned a value equivalent to half the detection limit. Viremia change from baseline was calculated by subtracting log 10 Day 5 copy number from the log 10 baseline copy number. Log10 Baseline and change from baseline values were used in the analyses.
Multivariate regression analysis (performed utilizing the standard built-in program in Graphpad Prism 9.3.1) was used to analyze the following dependent variables: Change in NP viral load from baseline through Day 5 (Regression 1) and total anti SARS-CoV-2 antibody change from baseline through Day 14 (Regression 2). The dependent variable data were tested to ensure that they passed at least three of four tests of normality (Anderson-Darling, D'Agostino-Pearson, Shapiro-Wilk and Kolmogorov-Smirnov tests) according to the standard built-in programs in GraphPad. The same independent variables described in Example 6 were utilized. […]

Vero E6 cells = settings: 4-day test, mock infected Vero E6 cells
in vitro = settings: African green monkey, CC50, 4-day test, mock infected Vero E6 cells
[10] = predicted Day 5 values, all group comparisons vs placebo, independent of vaccination or baseline MCP-1

Compound: COc1cc(NC(C)CCCN)c2ncccc2c1 (centres unmarked) [Primaquine]
- cure of Pneumocystis infections (Pneumocystis): must be combined with clindamycin
- dose that cleared Babesia parasitemia (Babesia): 100 mg/kg

Compound: COc1cc(C)c2c(Oc3cccc(C(F)(F)F)c3)c(OC)cc(NC(C)CCCN)c2n1 (centres unmarked) [Tafenoquine]
- effect on upper limit of 90% confidence interval of the QTC interval [1]: not found to increase
- Regression 1: MCP1 Day 5 CFB (Multivariate), Beta for Treatment (TQ = 1, PL = 0) ([2]; Day 5 value − Baseline value, P 0.0093): −74.4/
- Regression 2: MCP1 Day 14 CFB for high baseline MCP1, Beta for Treatment ([2]; baseline MCP-1 exceeding 350 units/ml, P 0.3304): 78.9/
- Regression 3: MCP1 Day 14 CFB for low baseline MCP1, Beta for Treatment ([2]; baseline MCP-1 less than 350 units/ml, P 0.2356): −35.0/
- Regression: MCP1 Day 14 CFB (rank-transformed), Beta for Treatment ([2]; human, in vivo): 0.584//
- reduction in Day 5 MCP-1 (absolute) [2, 10]: at least 41
- reduction in Day 5 MCP-1 (percent) [2, 10]: ≥ 10%
- Regression 1: MCP1 Day 5 (Univariate), Beta for Treatment ([2]; univariate, P 0.2548): −45.2/
- half-life [3]: 14 days
- cure of Pneumocystis infections (Pneumocystis): can be administered as monotherapy to cure
- dose that cleared Babesia parasitemia (Babesia): 20 mg/kg
- median time to clinical recovery (COVID-19 disease [4]; COVID-19 patients, 200 mg on Days 1, 2, 3 and 10, sustained recovery for four days or more, placebo 16 days): 13 days
- proportion of patients with persistent COVID-19 symptoms at Day 28 (COVID-19 disease [4]; tafenoquine arm vs placebo, Day 28): lower
- effect on total anti-SARS-CoV-2 antibody generation ([5]; P=0.546 as printed): did not affect
- Regression 2: Antibodies CFB (unvaccinated), Beta for Treatment ([5]; in vivo): −0.671/
- selectivity index (SARS-CoV-2 [6]): 14.3
- recovery from fever, cough and shortness of breath (COVID-19 disease [7]): accelerate recovery
- activity against the blood stages of P. falciparum [8]: quite effective
- Regression 1: NP Viral Load CFB, Beta for Treatment (TQ = 1, PL = 0) (SARS-CoV-2 [9]): −0.0735/

Compound: CCN(CCO)CCCC(C)Nc1ccnc2cc(Cl)ccc12 (centres unmarked) [Hydroxychloroquine]
- CC50 (Vero E6 cells): 67 µM
- CC50 (in vitro): ~55 µM
